Results from US20120040976A1, “SMALL MOLECULE IMMUNOMODULATORS FOR ALZHEIMER'S DISEASE” (HUMAN BIOMOLECULAR RESEARCH INSTITUTE, priority 2008, published 2012).

How the values were obtained:
TLR 9 = TLR 9 transcription ratio, AD patient / control PBMCs (qPCR); format: cell-based, human; settings: Aβ stimulation
Method: (§1) qPCR reactions of cultured monocyte cDNAs. One μL total cellular cDNA per reaction is used in triplicate reactions for each test gene, and for each culture treatment. SYBR-Green reactions were run on a Continuous Fluorescence real-time thermocycler and analyzed. Cycle threshold (Ct) values are recorded for each replicate reaction, and are then averaged and normalized against mean Ct values from one or more control genes. Fold-expression differences relative to untreated cells are determined using the 2^−ΔΔCt method as previously described. Data from the curcumin concentration range are plotted in order to determine EC50 values (concentrations producing one-half maximal stimulant activity), which are used for comparisons of potency between different compounds. Data are also evaluated for each gene with regard to sensitivity, maximally effective concentration of curcuminoid, response to Aβ, and overall magnitude of fold-expression changes.
(§2) MGAT3 and/or TLR transcription were tested by qPCR in human monocyte cells treated with curcuminoids and compared the results to those treated with vehicle (Table 7). As discussed above, activation or up-regulation of macrophage MGAT3 or TLR's results in many functional outcomes, including the enhancement of […] and removal of Aβ, increased apoptosis, secretion of inflammatory cytokines, and other anti-AD antimicrobial activities. […]

TLR 7 = TLR 7 transcription ratio, AD patient / control PBMCs (qPCR); format: cell-based, human; settings: Aβ stimulation
Method: as §1, §2

[1] = tested on: human monocytic cell line U-937; assay: Protection of U-937 cells against oxidative stress (H2O2, Trypan-blue viability); format: cell-based
Method: Protective effect of curcumin against oxidative stress. We tested the potential of curcumin to protect cells in vitro under conditions of oxidative stress. Natural curcumin has been reported to have antioxidant activity and to scavenge free radicals, but reports of the direct effects of curcumin or analogs upon cell viability under conditions of oxidative stress are limited. Viability of the human monocytic cell line U-937 was evaluated in the presence of H2O2, plus varying concentrations of natural BDC (range 0-10 nM). We observed that these cells are more sensitive to oxidative stress than are the neuroblastoma SHSY5Y cells, and so reduced concentrations of H2O2 were used for this experiment. […] However, concentrations of BDC between 0.1-10 nM (i.e. similar concentration range inducing maximal gene expression increases +Aβ in these cells) increased 2-hour cell survival rates up to 90%. […] Assays such as Trypan-blue staining, or other biochemical measures of cell toxicity/survival (e.g. ATP levels) may be useful for evaluating curcumin analogs for their neuroprotective effects against oxidative stress and as candidate AD or ALS drugs.

TLR 4 = TLR 4 transcription ratio, AD patient / control PBMCs (qPCR); format: cell-based, human; settings: Aβ stimulation
Method: as §1
MGAT3 and/or TLR transcription were tested by qPCR in human monocyte cells treated with curcuminoids and compared the results to those treated with vehicle (Table 7). As discussed above, activation or up-regulation of macrophage MGAT3 or TLR's results in many functional outcomes, including the enhancement of […] and removal of Aβ, increased apoptosis, secretion of inflammatory cytokines, and other anti-AD antimicrobial activities. […] Thus, the ratio of MGAT3 or TLR transcription upon Aβ stimulation of human monocytes versus vehicle treatment provides an indicator and sensitive method to test the in vitro efficacy of drug candidates. […] The relative biological activity of the curcumin analogs in AD patient and control cells was ascertained in the in vitro Aβ assay described above (see Example 2).

[2] = tested on: cortical neurons in hAPP-transfected rat brain slices; assay: Rat brain slice AD model (hAPP-induced neurodegeneration); format: cell-based; settings: rat brain slices transfected with EYFP and hAPP, three concentrations, 72 hrs (FIG. 8)
Excerpt: A rodent brain slice model for AD has been developed where the expression of human APP by particle-mediated gene transfer (“biolistics”) leads to typical signs of neuronal dystrophy, and ultimately the degeneration and clearance of the cell body with a few days. Brain slice preparations offer a powerful experimental system because they preserve the three-dimensional tissue architecture and local environment of neurons and glia far better than dissociated cell culture. As such, drug lead candidates that show neuroprotective activity in brain-tissue based disease models have a much increased ability to predict efficacy in vivo and ultimately in the clinic.
Preparation of Brain Slice Explants. Cd Sprague-Dawley Rat Pups are Used at Postnatal day 10. Brains are cut into 250 μm coronal slices on a vibratome in chilled medium baths. Approximately 6 such slices can be cut from each rat brain; each are divided into “hemi-coronal” slices which are placed in individual 6-well transwell inserts. […]
Assessment of cortical neuron health. […] Representative images are captured using a digital camera on a fluorescence microscope. After 3 days, cortical neurons are scored. […] Statistical significance of the neuronal counts in compound-treated slices is evaluated by ANOVA analysis, followed by post hoc Dunnett's analysis at the p≦0.05 confidence level. […]

TLR 10 = TLR 10 transcription ratio, AD patient / control PBMCs (qPCR); format: cell-based, human; settings: Aβ stimulation
Method: as §1, §2

TLR 6 = TLR 6 transcription ratio, AD patient / control PBMCs (qPCR); format: cell-based, human; settings: Aβ stimulation
Method: as §1, §2

Average permeability = format: in vitro ADME; settings: not told

With O=C(/C=C(O)/C=C/c1ccc(O)cc1)/C=C/c1ccc(O)cc1 [Compound 1, 5-Hydroxy-1,7-bis-(4-hydroxy-phenyl)-hepta-1,4,6-trien-3-one, reference compound] as the compound, how does the “Relative ratio of TLR 9 transcription in AD patient / control PBMC's” value (TLR 9) read?
Its value is “TLR 9 ++ ((++) indicates a ratio of 1.5-2.0)”.

And the “Relative ratio of TLR 7 transcription in AD patient / control PBMC's” value (TLR 7)?
The value was “TLR 7 ++ ((++) indicates a ratio of 1.5-2.0)”.

And the “2-hour cell survival rate” value ([1]; U-937, 100 μM H2O2, BDC 0.1-10 nM, Trypan-blue)?
The value was “up to 90%”.

What about the “Cell viability above 0.1-10 nM concentration range” value ([1]; U-937, in combination with H2O2) of the same compound?
The value was “decreased”.

And the “Relative ratio of TLR 4 transcription in AD patient / control PBMC's” value (TLR 4)?
The value was “TLR 4 +++ ((+++ to ++++) indicates a ratio of 2.0 and above)”.

And the “Neuroprotective effect against hAPP-induced neurodegeneration” value [2]?
Its value is “dose-dependent trend for AD related neuroprotection”.

And the “Relative ratio of TLR 10 transcription in AD patient / control PBMC's” value (TLR 10)?
The value was “TLR 10 ++ ((++) indicates a ratio of 1.5-2.0)”.

And the “Relative ratio of TLR 6 transcription in AD patient / control PBMC's” value (TLR 6)?
Its value is “TLR 6 + ((+) indicates a ratio of 1.0-1.5)”.

What about the Papp (Average permeability) of the same compound?
Its Papp is 3050 ± 90 nm/s.
